In patent US20200277571A1, “METHOD FOR AMPLIFYING CONE PHOTORECEPTORS OR ROD PHOTORECEPTORS USING DORSALIZATION SIGNAL TRANSMITTER OR VENTRALIZATION SIGNAL TRANSMITTER” (RIKEN, priority 2017, published 2020):

What was measured:
[1] = test system: S-opsin, M-opsin, L-opsin; assay: Quantitative PCR of S-opsin, M-opsin, L-opsin after maturation culture in serum-free medium; format: cell-based, human; details: BMP4 (0-1.35 nM) added in combination with T3 (0-8 nM) in serum-free DMEM/F12 after about day 190, not less than 30 days
Procedure: By a method similar to the methods described in Example 1 and Example 3, a cell aggregate containing a retinal tissue in a differentiation stage matured to the level that Muller cell was observed was prepared and culture was performed, in the serum-containing medium used, up to about day 190 to give a retinal tissue in a differentiation stage matured to the level that Muller cell was observed. Thereafter, by a method similar to the methods described in Example 11 and 12, further maturation was performed. That is, 0-1.35 nM BMP4 and 0-8 nM T3 were added to a medium obtained by adding 1% N2 supplement and 100 μM taurine but not adding 10% fetal calf serum to DMEM/F12 medium containing glutamic acid as a component, and culture was performed for not less than 30 days from the start of culture for further maturation. A cell aggregate containing a retinal tissue was recovered, quantitatively PCR was performed according to a conventional method, and the expression levels of S-opsin, M-opsin, L-opsin were confirmed. As a result, irrespective of the presence or absence of BMP4, the expression of S-opsin was promoted when T3 was absent.

ALDH1A1 gene = assay: Quantitative PCR of ALDH1A1 gene expression in retinal tissue; format: cell-based, human
Procedure: [1] Control group (FIG. 2a, f, k, p); according to the method described in Example 1, culture was performed up to day 70 or day 75 from the start of suspension culture and without addition. [2]+BMP group (FIG. 2b, g, 1, q); 0.15 nM BMP4 was added from day 22 from the start of suspension culture to completion of suspension culture, and cultured up to day 70 or day 75 from the start of suspension culture. [3]+Cyclopamine-KAAD group (FIG. 2c, h, m, r); 500 nM Cyclopamine-KAAD was added from day 22 from the start of suspension culture to completion of the suspension culture, and cultured up to day 70 or day 75 from the start of suspension culture. [4]+LDN193189 group (FIG. 2d, i, n, s); 100 nM LDN193189 was added from day 22 from the start of suspension culture to completion of the suspension culture, and cultured up to day 70 or day 75 from the start of suspension culture. [5]+SAG group (FIG. 2e, j, o, t); 100 nM SAG was added from day 22 from the start of suspension culture to completion of the suspension culture, and cultured up to day 70 or day 75 from the start of suspension culture.
The expression level of ALDH1A1 gene was analyzed by quantitative PCR using the same cDNA as that used in Example 7. As a result, similar to that observed by immunostaining, the expression level of ALDH1A1 gene was promoted in +BMP4 group as compared to the Control (NUC) group on about day 40 from the start of suspension culture (FIG. 8-2, black bar (d40) in graph). […]
After extracting RNA from retinal tissue prepared in this way, cDNA was synthesized and the expression level of ALDH1A1 gene was analyzed by quantitative PCR. […] Furthermore, a retinal tissue prepared using 1.35 nM BMP4 was fixed with 4% para-formaldehyde, cryosections were prepared, and immunostaining using an antibody against GFP (fluorescence of GFP variant incorporated in CRX gene locus can be identified. That is, cells similar to CRX-positive cell can be identified), ALDH1A1, or DAPI staining for staining the nucleus was performed. […]

[2] = test system: photoreceptor precursor and cone photoreceptor precursor in retinal tissue produced from human ES cells; assay: Immunostaining for CRX and TRβ2 and CRX::Venus fluorescence observation of retinal tissue, day 70-75 of suspension culture; format: cell-based

**Q.** For “BMP4: BMP protein; BMP signal transduction pathway agonist used as dorsalization signal transmitter”, which “expression of L and M-opsin” value [1] is on record?
**A.** The value was “promoted”.

**Q.** And the ALDH1A1 gene expression (ALDH1A1 gene; 1.35 nM BMP4 from day 22, day 70-75)?
**A.** The ALDH1A1 gene expression was “significantly increased”.

**Q.** What about the “expression level of ALDH1A1 gene versus Control (NUC) group” value (ALDH1A1 gene; about day 40, 0.15 nM BMP4 from day 22) of the same substance?
**A.** Its value is “promoted”.

**Q.** And the ALDH1A1 gene expression (ALDH1A1 gene; about day 70 (versus about day 40), 0.15 nM BMP4 from day 22)?
**A.** Its ALDH1A1 gene expression is “tendency of decrease”.

**Q.** And the “CRX::Venus-positive cells as compared with group added with 0.15 nM BMP4” value ([2]; 0.45 nM BMP4 from day 22)?
**A.** The value was “became less”.

**Q.** And the “CRX::Venus-positive cells as compared with group added with 0.15 nM BMP4” value ([2]; 1.35 nM BMP4 from day 22)?
**A.** Its value is “became less”.
